PubChem BioAssay (NCI)
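Test compounds were applied to cells in 96-well plates for 48 hours at 5 doses. Abbreviation: GI50, concentration required for 50% inhibition of growth. TGI: total growth inhibition.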

Experiments:
Test in all cases: NCI tumour cell line growth inhibition, 48 h
SK-OV-3 ovarian = test system: SK-OV-3 ovarian
MOLT-4 leukemia = test system: MOLT-4 leukemia
RPMI-8226 leukemia = test system: RPMI-8226 leukemia
SF-539 CNS = test system: SF-539 CNS
NCI-H522 lung = test system: NCI-H522 lung
NCI/ADR-RES ovarian = test system: NCI/ADR-RES ovarian
EKVX NSCLC = test system: EKVX NSCLC
SNB-75 CNS = test system: SNB-75 CNS
NCI-H226 lung = test system: NCI-H226 lung
HCT-116 colon = test system: HCT-116 colon
SK-MEL-2 melanoma = test system: SK-MEL-2 melanoma
T-47D breast = test system: T-47D breast
BT-549 breast = test system: BT-549 breast
HL-60(TB) leukemia = test system: HL-60(TB) leukemia
SF-295 CNS = test system: SF-295 CNS
SK-MEL-5 melanoma = test system: SK-MEL-5 melanoma
MDA-MB-231 breast = test system: MDA-MB-231 breast
CAKI-1 renal = test system: CAKI-1 renal
SN12C renal = test system: SN12C renal
OVCAR-5 ovarian = test system: OVCAR-5 ovarian
A498 renal = test system: A498 renal
UO-31 renal = test system: UO-31 renal
786-0 renal = test system: 786-0 renal
A549 NSCLC = test system: A549 NSCLC
SR leukemia = test system: SR leukemia
OVCAR-3 ovarian = test system: OVCAR-3 ovarian
NCI-H23 lung = test system: NCI-H23 lung
SNB-19 CNS = test system: SNB-19 CNS
ACHN renal = test system: ACHN renal
U251 CNS = test system: U251 CNS
IGROV1 ovarian = test system: IGROV1 ovarian
HOP-62 NSCLC = test system: HOP-62 NSCLC
COLO 205 colon = test system: COLO 205 colon
CCRF-CEM leukemia = test system: CCRF-CEM leukemia
NCI-H460 lung = test system: NCI-H460 lung
OVCAR-8 ovarian = test system: OVCAR-8 ovarian
LOX IMVI melanoma = test system: LOX IMVI melanoma
SK-MEL-28 melanoma = test system: SK-MEL-28 melanoma
HT29 colon = test system: HT29 colon
SF-268 CNS = test system: SF-268 CNS
M14 melanoma = test system: M14 melanoma
MDA-MB-468 breast = test system: MDA-MB-468 breast
MCF7 breast = test system: MCF7 breast
HOP-92 NSCLC = test system: HOP-92 NSCLC
HS 578T breast = test system: HS 578T breast
MDA-MB-435 = test system: MDA-MB-435
RXF 393 renal = test system: RXF 393 renal
UACC-257 melanoma = test system: UACC-257 melanoma
KM12 colon = test system: KM12 colon
SW-620 colon = test system: SW-620 colon
MALME-3M melanoma = test system: MALME-3M melanoma
UACC-62 melanoma = test system: UACC-62 melanoma
HCT-15 colon = test system: HCT-15 colon
HCC-2998 colon = test system: HCC-2998 colon
TK-10 renal = test system: TK-10 renal
OVCAR-4 ovarian = test system: OVCAR-4 ovarian
DU-145 prostate = test system: DU-145 prostate
PC-3 prostate = test system: PC-3 prostate
K-562 leukemia = test system: K-562 leukemia

Q: What does the source list for `C/C(=N\N=C\c1ccc(Cl)c([N+](=O)[O-])c1)c1ccc2c(c1)Nc1ccccc1S2`?
A: GI50 (SK-OV-3 ovarian): 37 µM; TGI (SK-OV-3 ovarian): > 100 µM; GI50 (MOLT-4 leukemia): 9.98 µM; TGI (MOLT-4 leukemia): > 100 µM; GI50 (RPMI-8226 leukemia): 4.27 µM; TGI (RPMI-8226 leukemia): > 100 µM; GI50 (SF-539 CNS): 18.5 µM; TGI (SF-539 CNS): 74.5 µM; GI50 (NCI-H522 lung): 11.6 µM; TGI (NCI-H522 lung): > 100 µM; GI50 (NCI/ADR-RES ovarian): 5.22 µM; TGI (NCI/ADR-RES ovarian): 53.1 µM; GI50 (EKVX NSCLC): 5.85 µM; TGI (EKVX NSCLC): > 100 µM; GI50 (SNB-75 CNS): 15.7 µM; TGI (SNB-75 CNS): 93.5 µM; GI50 (NCI-H226 lung): 8.48 µM; TGI (NCI-H226 lung): 41.9 µM; GI50 (HCT-116 colon): 4.44 µM; TGI (HCT-116 colon): > 100 µM; GI50 (SK-MEL-2 melanoma): 43.2 µM; TGI (SK-MEL-2 melanoma): > 100 µM; GI50 (T-47D breast): 6.56 µM; TGI (T-47D breast): > 100 µM; GI50 (BT-549 breast): 17.1 µM; TGI (BT-549 breast): 91.8 µM; GI50 (HL-60(TB) leukemia): 16.9 µM; TGI (HL-60(TB) leukemia): > 100 µM; GI50 (SF-295 CNS): 7.73 µM; TGI (SF-295 CNS): 65.3 µM; GI50 (SK-MEL-5 melanoma): 7.91 µM; TGI (SK-MEL-5 melanoma): > 100 µM; GI50 (MDA-MB-231 breast): 14.3 µM; TGI (MDA-MB-231 breast): > 100 µM; GI50 (CAKI-1 renal): 13.7 µM; TGI (CAKI-1 renal): > 100 µM; GI50 (SN12C renal): 44.3 µM; TGI (SN12C renal): > 100 µM; GI50 (OVCAR-5 ovarian): > 100 µM; TGI (OVCAR-5 ovarian): > 100 µM; GI50 (A498 renal): 31 µM; TGI (A498 renal): > 100 µM; GI50 (UO-31 renal): 78.2 µM; TGI (UO-31 renal): > 100 µM; GI50 (786-0 renal): 26.5 µM; TGI (786-0 renal): > 100 µM; GI50 (A549 NSCLC): 12.2 µM; TGI (A549 NSCLC): > 100 µM; GI50 (SR leukemia): 3.49 µM; TGI (SR leukemia): > 100 µM; GI50 (OVCAR-3 ovarian): 4.46 µM; TGI (OVCAR-3 ovarian): 22.5 µM; GI50 (NCI-H23 lung): 6.83 µM; TGI (NCI-H23 lung): 39.3 µM; GI50 (SNB-19 CNS): 15.8 µM; TGI (SNB-19 CNS): 53.6 µM; GI50 (ACHN renal): 14.4 µM; TGI (ACHN renal): > 100 µM; GI50 (U251 CNS): 7.43 µM; TGI (U251 CNS): 52.4 µM; GI50 (IGROV1 ovarian): 17.7 µM; TGI (IGROV1 ovarian): > 100 µM; GI50 (HOP-62 NSCLC): 8.03 µM; TGI (HOP-62 NSCLC): 41.3 µM; GI50 (COLO 205 colon): 36.1 µM; TGI (COLO 205 colon): > 100 µM; GI50 (CCRF-CEM leukemia): 4.12 µM; TGI (CCRF-CEM leukemia): > 100 µM; GI50 (NCI-H460 lung): 3.38 µM; TGI (NCI-H460 lung): 20 µM; GI50 (OVCAR-8 ovarian): 6.09 µM; TGI (OVCAR-8 ovarian): > 100 µM; GI50 (LOX IMVI melanoma): 24.8 µM; TGI (LOX IMVI melanoma): > 100 µM; GI50 (SK-MEL-28 melanoma): 17.8 µM; TGI (SK-MEL-28 melanoma): > 100 µM; GI50 (HT29 colon): 4.26 µM; TGI (HT29 colon): > 100 µM; GI50 (SF-268 CNS): 23.8 µM; TGI (SF-268 CNS): > 100 µM; GI50 (M14 melanoma): 72.4 µM; TGI (M14 melanoma): > 100 µM; GI50 (MDA-MB-468 breast): 1.58 µM; TGI (MDA-MB-468 breast): 5.66 µM; GI50 (MCF7 breast): 3.19 µM; TGI (MCF7 breast): 30 µM; GI50 (HOP-92 NSCLC): 12.2 µM; TGI (HOP-92 NSCLC): 61 µM; GI50 (HS 578T breast): 7.56 µM; TGI (HS 578T breast): 62.3 µM; GI50 (MDA-MB-435): 14.4 µM; TGI (MDA-MB-435): > 100 µM; GI50 (RXF 393 renal): 15.3 µM; TGI (RXF 393 renal): 59 µM; GI50 (UACC-257 melanoma): 9.51 µM; TGI (UACC-257 melanoma): > 100 µM; GI50 (KM12 colon): 9.7 µM; TGI (KM12 colon): > 100 µM; GI50 (SW-620 colon): 3.56 µM; TGI (SW-620 colon): > 100 µM; GI50 (MALME-3M melanoma): 10.9 µM; TGI (MALME-3M melanoma): 41.1 µM; GI50 (UACC-62 melanoma): 15.1 µM; TGI (UACC-62 melanoma): > 100 µM; GI50 (HCT-15 colon): 9.1 µM; TGI (HCT-15 colon): > 100 µM; GI50 (HCC-2998 colon): 5.08 µM; TGI (HCC-2998 colon): 19.4 µM; GI50 (TK-10 renal): 18 µM; TGI (TK-10 renal): 94.4 µM; GI50 (OVCAR-4 ovarian): 4.03 µM; TGI (OVCAR-4 ovarian): > 100 µM; GI50 (DU-145 prostate): 3.76 µM; TGI (DU-145 prostate): > 100 µM; GI50 (PC-3 prostate): 3 µM; TGI (PC-3 prostate): 23.3 µM; GI50 (K-562 leukemia): 5.37 µM; TGI (K-562 leukemia): > 100 µM
